What was measured:
PI3Kdelta = PI3Kdelta (Homo sapiens (Human), UniProt O00329); test: HTRF PI3K biochemical assay, delta isoform; settings: 0.3 nM enzyme, 100 uM ATP, 5 uM PIP2, form screened per table
Procedure, shortened: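 PI3Kδ at 0.3 nM preincubated 15 min with compound, then reacted 1 h at room temperature with 100 uM ATP and 5 uM PIP2. PIP3 product detected by competitive HTRF displacing biotin-PIP3 from GST-GRP1 PH domain, so signal falls with activity. 10-point 3-fold dose response.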

PI3Kalpha = PI3Kalpha (Homo sapiens (Human), UniProt P42336); test: HTRF PI3K biochemical assay, alpha isoform (selectivity versus delta); settings: relative ratio PI3K-alpha IC50 value / PI3K-delta IC50 value
PI3Kalpha, sequence (P42336 whole entry, the tested form may be a part, canonical isoform): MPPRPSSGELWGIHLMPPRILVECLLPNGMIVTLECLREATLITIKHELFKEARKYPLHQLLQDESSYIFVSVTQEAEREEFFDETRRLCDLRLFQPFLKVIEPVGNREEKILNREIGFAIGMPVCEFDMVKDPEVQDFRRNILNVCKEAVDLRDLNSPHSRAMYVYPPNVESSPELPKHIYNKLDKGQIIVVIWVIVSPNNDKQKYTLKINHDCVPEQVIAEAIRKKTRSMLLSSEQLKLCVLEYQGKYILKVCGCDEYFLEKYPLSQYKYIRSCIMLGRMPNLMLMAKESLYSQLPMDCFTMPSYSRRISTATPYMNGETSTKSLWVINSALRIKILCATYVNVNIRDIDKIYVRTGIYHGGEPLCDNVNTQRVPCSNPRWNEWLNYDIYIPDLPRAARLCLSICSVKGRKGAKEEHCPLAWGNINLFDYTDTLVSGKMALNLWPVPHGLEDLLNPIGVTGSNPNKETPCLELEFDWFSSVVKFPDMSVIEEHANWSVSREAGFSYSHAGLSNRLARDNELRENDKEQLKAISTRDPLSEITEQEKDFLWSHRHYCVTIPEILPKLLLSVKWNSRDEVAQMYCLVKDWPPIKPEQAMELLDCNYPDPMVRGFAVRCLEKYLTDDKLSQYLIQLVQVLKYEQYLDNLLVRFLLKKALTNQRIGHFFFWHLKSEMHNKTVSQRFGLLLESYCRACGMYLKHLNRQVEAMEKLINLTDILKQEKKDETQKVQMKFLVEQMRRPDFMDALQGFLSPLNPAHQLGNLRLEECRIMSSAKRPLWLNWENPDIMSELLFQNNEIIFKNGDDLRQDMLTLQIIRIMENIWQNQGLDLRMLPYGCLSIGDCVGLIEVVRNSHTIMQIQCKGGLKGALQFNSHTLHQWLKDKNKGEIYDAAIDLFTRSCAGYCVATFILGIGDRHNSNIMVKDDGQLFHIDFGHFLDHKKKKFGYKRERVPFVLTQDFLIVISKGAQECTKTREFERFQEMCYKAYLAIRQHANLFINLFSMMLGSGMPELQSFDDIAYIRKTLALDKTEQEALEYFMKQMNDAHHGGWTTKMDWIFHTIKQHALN
PI3Kalpha, sequence (P27986 whole entry partner, the tested form may be a part, canonical isoform): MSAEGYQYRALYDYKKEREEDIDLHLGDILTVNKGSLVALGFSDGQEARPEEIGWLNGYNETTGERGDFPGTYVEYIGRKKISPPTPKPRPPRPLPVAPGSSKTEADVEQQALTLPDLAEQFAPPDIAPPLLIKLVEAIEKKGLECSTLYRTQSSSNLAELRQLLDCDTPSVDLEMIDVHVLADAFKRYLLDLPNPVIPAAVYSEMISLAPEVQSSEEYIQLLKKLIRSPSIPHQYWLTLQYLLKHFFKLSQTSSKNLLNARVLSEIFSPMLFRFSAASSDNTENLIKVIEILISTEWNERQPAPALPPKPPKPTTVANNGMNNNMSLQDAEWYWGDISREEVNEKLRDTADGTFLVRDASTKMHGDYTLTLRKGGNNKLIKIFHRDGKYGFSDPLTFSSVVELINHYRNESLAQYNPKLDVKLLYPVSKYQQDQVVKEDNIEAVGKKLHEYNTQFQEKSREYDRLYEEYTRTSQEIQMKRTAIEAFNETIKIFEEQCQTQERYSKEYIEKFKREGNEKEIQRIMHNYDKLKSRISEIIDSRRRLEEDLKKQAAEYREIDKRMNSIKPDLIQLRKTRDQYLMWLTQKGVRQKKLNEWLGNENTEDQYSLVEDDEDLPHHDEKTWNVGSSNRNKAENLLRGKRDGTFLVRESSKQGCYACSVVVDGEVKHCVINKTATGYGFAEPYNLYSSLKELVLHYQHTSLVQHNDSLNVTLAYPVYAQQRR
Procedure, shortened: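 Recombinant human PI3Kα (0.5 nM) preincubated 15 min with compound, then reacted 1 h at room temperature with 100 uM ATP and 5 uM PIP2. PIP3 formation detected by HTRF competition with biotin-PIP3 for GST-GRP1 PH domain (Eu/APC, 665/620 nm); product lowers signal.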

PI3Kdelta, sequence (O00329 whole entry, the tested form may be a part, canonical isoform): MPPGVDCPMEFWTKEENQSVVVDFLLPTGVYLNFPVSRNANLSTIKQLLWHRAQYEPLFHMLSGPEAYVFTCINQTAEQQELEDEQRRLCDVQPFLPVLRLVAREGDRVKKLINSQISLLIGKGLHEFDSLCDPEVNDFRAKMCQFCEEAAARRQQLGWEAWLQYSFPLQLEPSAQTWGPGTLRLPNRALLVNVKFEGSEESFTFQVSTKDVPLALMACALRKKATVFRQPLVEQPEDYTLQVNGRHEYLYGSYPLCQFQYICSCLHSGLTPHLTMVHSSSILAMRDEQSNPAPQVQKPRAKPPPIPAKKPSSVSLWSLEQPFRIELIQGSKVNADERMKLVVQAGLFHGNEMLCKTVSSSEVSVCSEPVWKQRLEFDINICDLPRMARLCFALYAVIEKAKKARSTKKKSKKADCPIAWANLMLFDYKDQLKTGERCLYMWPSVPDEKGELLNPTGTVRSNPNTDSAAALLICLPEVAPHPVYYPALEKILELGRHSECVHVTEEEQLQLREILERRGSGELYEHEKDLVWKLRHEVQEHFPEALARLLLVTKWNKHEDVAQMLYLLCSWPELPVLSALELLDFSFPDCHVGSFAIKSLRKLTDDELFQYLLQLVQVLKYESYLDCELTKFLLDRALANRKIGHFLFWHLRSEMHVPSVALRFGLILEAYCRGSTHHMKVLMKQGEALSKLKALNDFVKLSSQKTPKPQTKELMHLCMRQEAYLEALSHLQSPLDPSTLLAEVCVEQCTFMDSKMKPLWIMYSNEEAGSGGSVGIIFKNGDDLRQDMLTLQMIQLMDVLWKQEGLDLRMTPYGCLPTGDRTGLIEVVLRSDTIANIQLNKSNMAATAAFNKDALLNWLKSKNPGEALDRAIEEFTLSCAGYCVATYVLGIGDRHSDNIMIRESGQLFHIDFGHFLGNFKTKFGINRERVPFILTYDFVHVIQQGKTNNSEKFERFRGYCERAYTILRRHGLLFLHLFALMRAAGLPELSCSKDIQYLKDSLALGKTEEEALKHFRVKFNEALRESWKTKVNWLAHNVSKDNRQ
PI3Kdelta, sequence (P27986 whole entry partner, the tested form may be a part, canonical isoform): as the sequence (P27986 whole entry partner, the tested form may be a part, canonical isoform) above

Row | SMILES | IC50 (PI3Kdelta) [nM] | Selectivity versus PI3Kalpha (PI3Kalpha)
1 | C[C@@H]1CN(c2nc(Cl)c(C#N)c(-c3cnn(C)c3)n2)CCN1C(=O)C1CC1 [Compound 6-9, 4-chloro-2-[(3R)-4-(cyclopropylcarbonyl)-3-methylpiperazin-1-yl]-6-(1-methyl-1H-pyrazol-4-yl)pyrimidine-5-carbonitrile] | 30 | >10
2 | Cc1nc(-c2cnn(C)c2)nc(N2CCN(C(=O)C3CC3)[C@H](C)C2)c1C#N [Compound 6-10, 4-[(3R)-4-(cyclopropylcarbonyl)-3-methylpiperazin-1-yl]-6-methyl-2-(1-methyl-1H-pyrazol-4-yl)pyrimidine-5-carbonitrile] | 180 | >10
3 | C[C@@H]1CN(c2nc(-c3cnn(C)c3CCC(F)(F)F)ncc2C#N)CCN1C(=O)C1CC1 [Compound 6-11, 4-[(3R)-4-(cyclopropylcarbonyl)-3-methylpiperazin-1-yl]-2-[1-methyl-5-(3,3,3-trifluoropropyl)-1H-pyrazol-4-yl]pyrimidine-5-carbonitrile] | 160 | >10
4 | COCCc1nc(N2CCN(C(=O)C3CC3)[C@H](C)C2)nc(-c2cnn(C)c2)c1C#N [Compound 6-12, 2-[(3R)-4-(cyclopropylcarbonyl)-3-methylpiperazin-1-yl]-4-(2-methoxyethyl)-6-(1-methyl-1H-pyrazol-4-yl)pyrimidine-5-carbonitrile] | 58 | >10
5 | C[C@@H]1CN(c2ncc(C#N)c(-c3cn(C)nc3C#N)n2)CCN1C(=O)C1CC1 [Compound 6-13, 4-(3-cyano-1-methyl-1H-pyrazol-4-yl)-2-[(3R)-4-(cyclopropylcarbonyl)-3-methylpiperazin-1-yl]pyrimidine-5-carbonitrile] | 180 | >10
6 | C[C@@H]1CN(c2ncc(C#N)c(-c3cn(C)nc3N)n2)CCN1C(=O)C1CC1 [Compound 6-14, 4-(3-amino-1-methyl-1H-pyrazol-4-yl)-2-[(3R)-4-(cyclopropylcarbonyl)-3-methylpiperazin-1-yl]pyrimidine-5-carbonitrile] | 21 | >10
7 | C[C@@H]1CN(c2nc(-c3cnn4c3CCC4)ncc2C#N)CCN1C(=O)C1CC1 [Compound 6-15, 4-[(3R)-4-(cyclopropylcarbonyl)-3-methylpiperazin-1-yl]-2-(5,6-dihydro-4H-pyrrolo[1,2-b]pyrazol-3-yl)pyrimidine-5-carbonitrile] | 83 | >10
8 | C[C@@H]1CN(c2nc(-c3cnn(C)c3)nc(NC(=O)NCC(F)(F)F)c2C#N)CCN1C(=O)C1CC1 [Compound 6-16, 1-{5-cyano-6-[(3R)-4-(cyclopropylcarbonyl)-3-methylpiperazin-1-yl]-2-(1-methyl-1H-pyrazol-4-yl)pyrimidin-4-yl}-3-(2,2,2-trifluoroethyl)urea] | 16 | >10
9 | C[C@@H]1CN(c2nc(-c3cnn(C)c3)nc(NC(=O)NC3CCC3)c2C#N)CCN1C(=O)C1CC1 [Compound 6-17, 1-{5-cyano-6-[(3R)-4-(cyclopropylcarbonyl)-3-methylpiperazin-1-yl]-2-(1-methyl-1H-pyrazol-4-yl)pyrimidin-4-yl}-3-cyclobutylurea] | 5 | >10
10 | C[C@@H]1CN(c2nc(-c3cnn(C)c3)nc(NCC3COC3)c2C#N)CCN1C(=O)C1CC1 [Compound 6-18, 4-[(3R)-4-(cyclopropylcarbonyl)-3-methylpiperazin-1-yl]-2-(1-methyl-1H-pyrazol-4-yl)-6-[(oxetan-3-ylmethyl)amino]pyrimidine-5-carbonitrile] | 49 | >10
11 | C[C@@H]1CN(c2nc(-c3cnn(C)c3)nc(NCCC(F)(F)F)c2C#N)CCN1C(=O)C1CC1 [Compound 6-19, 4-[(3R)-4-(cyclopropylcarbonyl)-3-methylpiperazin-1-yl]-2-(1-methyl-1H-pyrazol-4-yl)-6-[(3,3,3-trifluoropropyl)amino]pyrimidine-5-carbonitrile] | 9.4 | >10
12 | CC(C)Nc1nc(-c2cnn(C)c2)nc(N2CCN(C(=O)C3CC3)[C@H](C)C2)c1C#N [Compound 6-20, 4-[(3R)-4-(cyclopropylcarbonyl)-3-methylpiperazin-1-yl]-6-[(1-methylethyl)amino]-2-(1-methyl-1H-pyrazol-4-yl)pyrimidine-5-carbonitrile] | 150 | >10
13 | CC(C)CNc1nc(-c2cnn(C)c2)nc(N2CCN(C(=O)C3CC3)[C@H](C)C2)c1C#N [Compound 6-21, 4-[(3R)-4-(cyclopropylcarbonyl)-3-methylpiperazin-1-yl]-6-[(2-methylpropyl)amino]-2-(1-methyl-1H-pyrazol-4-yl)pyrimidine-5-carbonitrile] | 21 | >10
14 | C[C@@H]1CN(c2nc(-c3cnn(C)c3)nc(OCC(F)(F)F)c2C#N)CCN1C(=O)C1CC1 [Compound 6-22, 4-[(3R)-4-(cyclopropylcarbonyl)-3-methylpiperazin-1-yl]-2-(1-methyl-1H-pyrazol-4-yl)-6-(2,2,2-trifluoroethoxy)pyrimidine-5-carbonitrile] | 9.7 | >10
15 | C[C@@H]1CN(c2nc(-c3cnn(C)c3)nc(N3CC(C(F)(F)F)C3)c2C#N)CCN1C(=O)C1CC1 [Compound 6-23, 4-[(3R)-4-(cyclopropylcarbonyl)-3-methylpiperazin-1-yl]-2-(1-methyl-1H-pyrazol-4-yl)-6-[3-(trifluoromethyl)azetidin-1-yl]pyrimidine-5-carbonitrile] | 83 | >10
16 | CCCc1nc(-c2cnn(C)c2)nc(N2CCN(C(=O)C3CC3)[C@H](C)C2)c1C#N [Compound 6-24, 4-[(3R)-4-(cyclopropylcarbonyl)-3-methylpiperazin-1-yl]-2-(1-methyl-1H-pyrazol-4-yl)-6-propylpyrimidine-5-carbonitrile] | 200 | >10
17 | CCCc1nc(N2CCN(C(=O)C3CC3)[C@H](C)C2)nc(-c2cnn(C)c2)c1C#N [Compound 6-25, 2-[(3R)-4-(cyclopropylcarbonyl)-3-methylpiperazin-1-yl]-4-(1-methyl-1H-pyrazol-4-yl)-6-propylpyrimidine-5-carbonitrile] | 10 | >10
18 | C[C@@H]1CN(c2nc(CCC(F)(F)F)c(C#N)c(-c3cnn(C)c3)n2)CCN1C(=O)C1CC1 [Compound 6-26, 2-[(3R)-4-(cyclopropylcarbonyl)-3-methylpiperazin-1-yl]-4-(1-methyl-1H-pyrazol-4-yl)-6-(3,3,3-trifluoropropyl)pyrimidine-5-carbonitrile] | 12 | >10
19 | C[C@@H]1CN(c2nc(-c3cnn(C)c3)c(C#N)c(C3CC3)n2)CCN1C(=O)C1CC1 [Compound 6-27, 4-cyclopropyl-2-[(3R)-4-(cyclopropylcarbonyl)-3-methylpiperazin-1-yl]-6-(1-methyl-1H-pyrazol-4-yl)pyrimidine-5-carbonitrile] | 32 | >10
20 | Cc1nn(C)cc1-c1ncc(C#N)c(N2CCN(C(=O)C3CC3)[C@H](C)C2)n1 [Compound 6-28, 4-[(3R)-4-(cyclopropylcarbonyl)-3-methylpiperazin-1-yl]-2-(1,3-dimethyl-1H-pyrazol-4-yl)pyrimidine-5-carbonitrile] | 140 | >10
21 | Cc1c(-c2ncc(C#N)c(N3CCN(C(=O)C4CC4)[C@H](C)C3)n2)cnn1C [Compound 6-29, 4-[(3R)-4-(cyclopropylcarbonyl)-3-methylpiperazin-1-yl]-2-(1,5-dimethyl-1H-pyrazol-4-yl)pyrimidine-5-carbonitrile] | 81 | >10
22 | C[C@@H]1CN(c2nc(-c3cnn(C(F)F)c3)ncc2C#N)CCN1C(=O)C1CC1 [Compound 6-30, 4-[(3R)-4-(cyclopropylcarbonyl)-3-methylpiperazin-1-yl]-2-[1-(difluoromethyl)-1H-pyrazol-4-yl]pyrimidine-5-carbonitrile] | 330 | >10

Reference: patent publication US11230547B2, “Purine inhibitors of human phosphatidylinositol 3-kinase delta” (Merck Sharp & Dohme Corp., priority 2017, dated 2022)
